Reference: patent publication US10743544B2, “Method for inactivating Cronobacter sakazakii” (priority 2015, dated 2020)
“Also recorded” adds a separate entry of the source.

Tests used:
[1] = pH of rehydrated PIF after addition of natural extract (pH meter); type: physicochemical; details: 5 mg/mL added to rehydrated PIF (initial pH 6.82)
Procedure: (§1) A commercial PIF (Wondersun, Harbin, Hei Longjiang Province, China) was purchased and reconstituted according to the manufacturer's instruction. Briefly, 15 g of the PIF was reconstituted in 100 mL of sterile distilled water. 5 mg/mL TP, malic acid, citric acid or ascorbic acid (VC) was added to the rehydrated PIF, and shaken gently to make sure that it was fully dissolved. A pH meter was used to determine the pH of all the solutions. The initial pH of rehydrated PIF was 6.82 and it dropped to pH 3.62, pH 3.55, pH 4.55 and pH 6.46 after added 5 mg/mL malic acid, citric acid, VC and TP, respectively. The final concentration of the natural extract solutions was 0.5% and the milk powder solutions were packed into different test tubes with 9 ml solution in each tube. Milk powder solution without any natural extract product was used as the control group.

[2] = system: Cronobacter sakazakii strains ES45, ES46, ES37, and ES39; test: Tolerance of C. sakazakii to different natural extracts in PIF, plate count (FIG. 1); type: cell-based; details: 0.5% in PIF, pH not adjusted, four strains; for growth trend of C. sakazakii (plate count): 37° C., up to 7 hours
Procedure: as §1
1 mL of 8.0 Log CFU/mL cell suspensions of four C. sakazakii strains were separately added to 9 mL rehydrated PIF with different natural extracts prepared above to obtain final concentrations of approximately 7.0 Log CFU/mL. The cell suspensions with different natural extracts were incubated at 37° C. for 1, 3, 5 and 7 hours, and mixed to make sure that the solutions were homogeneous. After serial dilution with NS, 0.1 mL of appropriately diluted cultures were spread-plated on TSA plates and incubated upside down at 37° C. overnight to observe the growth of Cronobacter sakazakii.
The tolerance of four different ST types of Cronobacter sakazakii to different natural extracts was studied by serial dilution plate count method. The cell suspensions were separately added to PIF containing 0.5% tea polyphenols, 0.5% VC, 0.5% malic acid or 0.5% citric acid. The pH of each solution was measured using a pH meter and the plate count analysis was carried out at different time points of incubation.

[3] = system: Cronobacter sakazakii strains ES45, ES46, ES37 and ES39; test: Tolerance of C. sakazakii to acidified natural extracts in PIF, pH 3.55 (FIG. 2); type: cell-based; details: 0.5% in PIF, pH 3.55 versus unadjusted pH
Procedure: A commercial PIF (Wondersun, Harbin, Hei Longjiang Province, China) was purchased and reconstituted according to the manufacturer's instruction. Briefly, 15 g of the PIF was reconstituted in 100 mL of sterile distilled water. 5 mg/mL TP was added to the rehydrated PIF and shaken gently to make sure it was fully dissolved. As controls, malic acid, citric acid and VC were dissolved in PIF in the same way as that of TP. A pH meter was used to determine the pH of all solutions. The initial pH of rehydrated PIF was 6.82 and the value of pH dropped to pH 3.62, pH 3.55, pH 4.55 and pH 6.46 after addition of 5 mg/mL malic acid, citric acid, VC and TP, respectively. The final concentration of the natural extract solutions was 0.5% (w/v) and PIF solutions were packed into different test tubes, each tube with 9 mL solution. PIF solution without adding additional substance was used as the blank control group.
In order to eliminate the effect of pH on the growth of Cronobacter sakazakii, it is necessary to adjust the pH for each treatment group to be the same. The pH of all the treatment groups was adjusted to pH 3.55 with 4 M HCl and 4M NaOH, which was the minimum pH of all the treatment solutions. The PIF acidified with HCl was used as the control. 1 mL of 8.0 Log CFU/mL cell suspensions of the four C. sakazakii strains were separately added to 9 mL acidified PIF with different natural extracts. […]

Row | pH of rehydrated PIF after addition [1] | SMILES | growth trend of C. sakazakii (plate count) [2] | antibacterial effect in PIF [2] | antibacterial/inhibitory effect after acidification compared with before [3]
1 | 4.55 | O=C1O[C@H]([C@@H](O)CO)C(O)=C1O [VC, ascorbic acid] | slower growth trend | not obvious | stronger antibacterial activity than before the treatment
2 | 3.55 | O=C(O)CC(O)(CC(=O)O)C(=O)O [citric acid] | downward trend | some antibacterial effect | not significantly different; also recorded: not significant
3 | 3.62 | O=C(O)CC(O)C(=O)O (centres unmarked) [malic acid] | did not change much | not obvious | 
